Results from PMC9246766 (Pharmaceutical research, 2022).
Read-outs that look alike come from different tables or passages of the source.

Key:
OCT3 [1] = biological target: T1, OCT3 (Homo sapiens, UniProt O75751); assay: ASP+ uptake kinetics in HEK-293 cells overexpressing OCT3; assay type: cell-based; conditions: read-out: Km of OCT3-mediated ASP+ uptake; 2 min uptake, 37°C; OCT3-specific uptake (OCT3 minus empty vector)
T1 sequence (O75751 1-556): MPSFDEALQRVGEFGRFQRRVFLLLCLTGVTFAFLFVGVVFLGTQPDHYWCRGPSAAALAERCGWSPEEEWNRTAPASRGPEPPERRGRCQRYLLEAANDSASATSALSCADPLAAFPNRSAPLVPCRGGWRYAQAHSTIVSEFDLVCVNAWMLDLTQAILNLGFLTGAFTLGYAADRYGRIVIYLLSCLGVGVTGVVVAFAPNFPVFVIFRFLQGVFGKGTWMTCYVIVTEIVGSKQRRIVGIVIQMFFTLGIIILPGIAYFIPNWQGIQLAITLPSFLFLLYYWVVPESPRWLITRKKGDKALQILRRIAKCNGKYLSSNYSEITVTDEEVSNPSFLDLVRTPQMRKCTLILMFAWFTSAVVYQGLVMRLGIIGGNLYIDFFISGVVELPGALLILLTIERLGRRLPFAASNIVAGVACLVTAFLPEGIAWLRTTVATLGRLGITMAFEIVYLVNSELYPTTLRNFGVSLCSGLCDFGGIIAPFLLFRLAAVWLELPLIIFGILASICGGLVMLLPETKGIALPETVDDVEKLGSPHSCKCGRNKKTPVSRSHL

[2] = plasma protein binding used for unbound CMAX; source not given; cited from earlier work
OCT3 [3] = biological target: T1, OCT3; conditions: read-out: Experimental IC50; OCT3 inhibition, literature value; ref 1 (Bourdet et al., 2005); cited from earlier work
OCT3 [4] = biological target: T1, OCT3; assay: High throughput screen: inhibition of OCT3-mediated ASP+ uptake in HEK-293 cells stably expressing OCT3; assay type: cell-based; conditions: for inhibition at 20 µM: HEK293
OCT3 [5] = biological target: T1, OCT3; assay: Predicted DDI potential: ratio of plasma CMAX (total or unbound) to predicted OCT3 IC50; conditions: unbound plasma CMAX over predicted OCT3 IC50
[6] = cited from earlier work; for FDA product insert: warnings, precautions and major adverse reactions: cardiovascular / CNS related, ref FDA product insert
[7] = total maximum plasma concentration; ref http://www.micromedexsolutions.com/; cited from earlier work
OCT3 [8] = biological target: T1, OCT3; assay: IC50 determination against OCT3-mediated [14C]metformin uptake in HEK-293 cells overexpressing OCT3; assay type: cell-based
OCT3 [9] = biological target: T1, OCT3; assay: IC50 determination against OCT3-mediated ASP+ uptake in HEK-293 cells overexpressing OCT3; assay type: cell-based

SMILES	Km (OCT3 [1]) [µM]	Protein binding [2] [%]	IC50 (OCT3 [3]) [µM]	IC50 (OCT3 [4]) [µM]	inhibition at 20 µM (OCT3 [4]) [%]	Unbound CMAX/IC50 (OCT3 [5])	FDA product insert: warnings, precautions and major adverse reactions [6]	Neurological side effects ([6]; stated in discussion, ref Table SII, 60)	Cmax [7] [µM]	IC50 (OCT3 [8]) [µM]	FDA product insert: warnings, precautions and major adverse reactions ([6]; listed as Trazodone)	IC50 (OCT3 [9]) [µM]
CN(C)c1ccc(/C=C/c2cc[n+](C)cc2)cc1 [ASP^+, 4-Di-1-ASP]	33.3	–	–	–	–	–	–	–	–	–	–	–
NC(N)=Nc1nc(CSCCC(N)=NS(N)(=O)=O)cs1 [famotidine]	–	10	6.7 ± 2	9.9	66.9	28.0	Warnings and precautions: Central Nervous System (CNS) Adverse Reactions: Advise elderly patients and those with moderate and severe renal impairment of the risk of CNS adverse reactions, including confusion, delirium, hallucinations, disorientation, agitation, seizures, and lethargy.	neurological side effects	308	–	–	–
O=c1n(CCCN2CCN(c3cccc(Cl)c3)CC2)nc2ccccn12 [trazodone]	–	90	–	< 5	94.5	0.15	warnings and precautions related to cardiovascular side-effects	–	7.6	2.5	Warnings and precautions: Cardiac Arrhythmias: Increases the QT interval. Avoid use with drugs that also increase the QT interval and in patients with risk factors for prolonged QT interval.	5.2
